Where a name gives a salt, the structure may show the parent alone. Read-outs that look alike come from different tables or passages of the source. Marks after values point to notes of the source that are not given here.
How the values were obtained:
Bel-7402 HCC = details: for Inhibition rate: from tumor weight vs control
Excerpt: (§1) An animal model of HCC cells (Bel-7402, HepG2) transplanted into nude mice was established according to the method described in ref. 10.

HepG2 HCC = tested on: HepG2 HCC
Excerpt: as §1

[1] = Cardiac indexes, Bel-7402 HCC mice; format: in vivo, nude mice; details: high dose, after treatment
Caco2 [2] = assay: Drug concentration in tumor cells by HPLC, Caco2; format: cell-based, human; details: incubated 2 hours
Caco2 [3] = assay: cells; format: cell-based, human; details: Homo sapiens, Caco-2
Procedure: (§2) Cells in the growth log phase were seeded in 96-well plate (200 ul/well) with density 8×10^3/well for 24 hours, then the drugs were added. The concentration of Doxorubicin-tripeptide conjugate was 0.005 mg/ml, 0.01 mg/ml, 0.02 mg/ml, 0.04 mg/ml, 0.06 mg/ml in turn, while Doxorubicin followed by 0.005 mg/ml, 0.01 mg/ml, 0.02 mg/ml, 0.04 mg/ml, 0.06 mg/ml with a same dosing volume 100 μl. Each concentration group included five equal wells and was provided with a control well of medium alone as a negative control. Add 20 μl of MTT Reagent ( 5 mg/ml, Sigma) to each well, including controls and continue to be incubated at 37°C for 4 hours. Remove the supernatant, drop plus DMSO (200 μl/well) and measure the OD value in each well, including the blanks, at 490 nm by a Multi-Mode Reader (BioTek, Synergy 2, USA). To calculate the inhibitory rate and the half maximal inhibitory concentration (IC50) according to the formula: Inhibitory rate =(1-( the dosing group OD/the control group OD )) × 100%, IC50 = lg^-1 (Xm-i (ΣP-0.5)) (Xm: the logarithm of maximum concentration, I: the logarithm of maximum dose/ adjacent dose, P: the sum of each group inhibitory rate, Pm: the maximum inhibitory rate, Pn: the minimum inhibitory rate ).

Bel-7402 = assay: cells; format: cell-based, human; details: Homo sapiens
Procedure: as §2

HepG2 = assay: cells; format: cell-based, human; details: Homo sapiens, HepG2, given as fraction, read-out: Inhibitory effect by MTT
Procedure: as §2

[4] = Cardiac indexes, HepG2 HCC mice; format: in vivo, nude mice; details: low dose, after treatment

In the case of COc1cccc2c1C(=O)c1c(O)c3c(c(O)c1C2=O)C[C@@](O)(C(=O)CO)C[C@@H]3O[C@H]1C[C@H](N)[C@H](O)[C@H](C)O1 [Doxorubicin, Doxorubicin hydrochloride], the median survival time (Bel-7402 HCC; Bel-7402, high dose group) is reported as 25.5 days, the deaths during treatment (Bel-7402 HCC; Bel-7402, high dose group, 5W) is reported as 1 death and 2 deaths and 1 death in the treatment of 2W+, 3W+ and 4W+ respectively and the “Tumor volume, Before treatment” value (Bel-7402 HCC; Bel-7402 HCC mice, baseline) is reported as 0.38 ± 0.28 cm^2. For the same compound, the “Tumor volume (third column, no sub-head; actual volume at end of experiment)” value (Bel-7402 HCC; Bel-7402 HCC mice, high dose) was 0.27 ± 0.16 cm^2, the “Tumor volume, After treatment” value (Bel-7402 HCC; Bel-7402 HCC mice, high dose: Doxorubicin 60 mg/m^2, conjugate 300 mg/m^2) was 0.42 ± 0.33 cm^2 and the Tumor weight (Bel-7402 HCC; Bel-7402 HCC mice, high dose, end of treatment) was 1.30 ± 0.41 g. For the same compound, the Inhibition rate (Bel-7402 HCC; Bel-7402 HCC mice, high dose) was 32.35%, the Inhibition rate (Bel-7402 HCC; Bel-7402 HCC mice, high dose, listed as C) was 32.35^c % and the “Mice weight, Before treatment” value (Bel-7402 HCC; mouse, in vivo) was 23.15 ± 1.60 g. For the same compound, the median survival time (HepG2 HCC; HepG2, low dose group) was 26.5 days, the deaths during treatment (HepG2 HCC; HepG2, low dose group, 5W) was 3 deaths and 1 death respectively in the treatment of 3W+ and 4W+ and the “Tumor volume, Before treatment” value (HepG2 HCC; HepG2 HCC mice, baseline) was 0.32 ± 0.30 cm^2. For the same compound, the “Tumor volume (third column, no sub-head; actual volume at end of experiment)” value (HepG2 HCC; HepG2 HCC mice, low dose) was 0.50 ± 0.46 cm^2, the “Tumor volume, After treatment” value (HepG2 HCC; HepG2 HCC mice, low dose: Doxorubicin 40 mg/m^2, conjugate 200 mg/m^2) was 0.64 ± 0.61 cm^2 and the Tumor weight (HepG2 HCC; HepG2 HCC mice, low dose, end of treatment) was 1.66 ± 0.98 g. For the same compound, the “Mice weight, Before treatment” value (HepG2 HCC; mouse, in vivo) was 21.23 ± 4.97 g, the AST [1] was 1400.83 ± 506.35^a U/L and the CK [1] was 1357.83 ± 504.33^ac U/L. The CK-Mb [1] was 823.17 ± 342.53 U/L, the GSH-PX [1] was 462.36 ± 100.90^a U and the LDH [1] was 5811.67 ± 3290.44 U/L. For the same compound, the MDA [1] was 3.43 ± 0.35^a nmol/mg, the SOD [1] was 151.60 ± 18.08^a U/mg and the “drug concentration in tumor cells” value (Caco2 [2]) was 2730 ± 40 ng/mL. It also gave an IC50 (Caco2 [3]; Caco2, MTT, read-out: IC50) of 15.4 µg/mL, an inhibition at 5 µg/mL (Caco2 [3]; Caco2, drug 0.005 mg/ml, given as fraction, read-out: Inhibitory effect by MTT) of 34.6% and an inhibition at 10 µg/mL (Caco2 [3]; Caco2, drug 0.01 mg/ml, given as fraction, read-out: Inhibitory effect by MTT) of 50%. The inhibition at 20 µg/mL (Caco2 [3]; Caco2, drug 0.02 mg/ml, given as fraction, read-out: Inhibitory effect by MTT) was 57.9%, the inhibition at 40 µg/mL (Caco2 [3]; Caco2, drug 0.04 mg/ml, given as fraction, read-out: Inhibitory effect by MTT) was 62.3% and the inhibition at 80 µg/mL (Caco2 [3]; Caco2, drug 0.08 mg/ml, given as fraction, read-out: Inhibitory effect by MTT) was 78.9%. It also gave an IC50 (Bel-7402; Bel-7402, MTT, read-out: IC50) of 13.8 µg/mL, an inhibition at 5 µg/mL (Bel-7402; Bel-7402, drug 0.005 mg/ml, given as fraction, read-out: Inhibitory effect by MTT) of 38.8% and an inhibition at 10 µg/mL (Bel-7402; Bel-7402, drug 0.01 mg/ml, given as fraction, read-out: Inhibitory effect by MTT) of 49.1%. For the same compound, the inhibition at 20 µg/mL (Bel-7402; Bel-7402, drug 0.02 mg/ml, given as fraction, read-out: Inhibitory effect by MTT) was 61.2%, the inhibition at 40 µg/mL (Bel-7402; Bel-7402, drug 0.04 mg/ml, given as fraction, read-out: Inhibitory effect by MTT) was 70% and the inhibition at 80 µg/mL (Bel-7402; Bel-7402, drug 0.08 mg/ml, given as fraction, read-out: Inhibitory effect by MTT) was 79.8%. The inhibition at 5 µg/mL (HepG2; drug 0.005 mg/ml) was 34.6%, the inhibition at 10 µg/mL (HepG2; drug 0.01 mg/ml) was 42.2% and the inhibition at 20 µg/mL (HepG2; drug 0.02 mg/ml) was 57.3%. It also gave an inhibition at 40 µg/mL (HepG2; drug 0.04 mg/ml) of 66.6%, an inhibition at 80 µg/mL (HepG2; drug 0.08 mg/ml) of 87.9% and an AST [4] of 989.25 ± 145.74 U/L. The CK [4] was 1160.50 ± 164.82 U/L, the CK-Mb [4] was 797.00 ± 155.90^a U/L and the GSH-PX [4] was 515.57 ± 146.57^a U. The LDH [4] was 6958.50 ± 991.50 U/L, the MDA [4] was 3.97 ± 0.50 nmol/mg and the SOD [4] was 135.63 ± 16.22^a U/mg.
